Like-named read-outs stand apart in the source and are kept apart here. Non-standard residues stand in square brackets, D forms with d. Residues, ends and D or L forms follow the SMILES beside them. ξ: configuration not given here. *: point of attachment. Dolaproine = CO[C@@H]([C@@H]1CCCN1)[C@@H](C)C(=O)O; Dil = CC[C@H](C)[C@H](NC)[C@@H](CC(=O)O)OC; NH(4-aminobenzyl) = Nc1ccc(CN*)cc1; NMe2Val = CC(C)[C@@H](C(=O)*)N(C)C; β3hF = N[C@H](CC(=O)O)Cc1ccccc1; ξF = NC(Cc1ccccc1)C(=O)O
Assays:
[1] = system: human gastric cancer cell line NCI-N87; test: Experimental example 1: NCI-N87 gastric cancer subcutaneous xenograft, tumor inhibition; format: in vivo, Balb/c-nu mice; details: D21 after administration; IV, BIW×3W; BT001021 and Immu-132 3 mg/kg, toxins T-030 and SN-38 equimolar to ADC
Procedure: Tumor-bearing mice (6 mice/group) with tumor volume of 100-200 mm^3 were randomly grouped (the number of groups was determined according to sample number). The administration volume was 10 ml/kg, and the administration route was tail intravenous injection. The mice were administered twice a week, and tumor diameter was measured with a vernier caliper, and tumor volume was calculated based on the following calculation formula: V=0.5 a×b^2, wherein a and b stand for the long diameter and short diameter of a tumor respectively. Animal deaths were observed and recorded every day.
The tumor growth inhibition rate TGI (%) was calculated from the following formula to evaluate tumor inhibitory effect of antibody drug conjugates:
Specifically, in the experimental examples 1 and 2, tumor-bearing mice models were constructed by subcutaneous xenograft of a human gastric cancer cell line NCI-N87 or a human triple negative breast cancer cell line HCC1806. After the tumor volume was about 100 mm^3, the mice were randomly grouped, and intravenously administered with BT001021 twice a week for a total of 6 times. Changes in tumor volume and animal body weight were measured twice a week to evaluate the efficacy (tumor inhibitory effect) of the antibody drug conjugate on tumor-bearing mice.
NCI-N87 cells were cultured in a 1640 culture medium containing 10% fetal bovine serum at 37° C. and 5% CO2. NCI-N87 cells in the exponential growth stage were collected, resuspended in PBS to a suitable concentration, and inoculated subcutaneously into female Balb/c-nu mice to construct gastric cancer models. When the mean tumor volume was about 90 mm^3, the mice were randomly grouped into a physiological saline group, a BT001021 (3 mg/kg, IV, BIW×3W) group, a positive drug Immu-132 (3 mg/kg, IV, BIW×3W) group, a T030 group and a SN38 group according to the tumor size, followed by tail intravenous injection of corresponding drugs twice a week for a total of 6 times. After administration, the tumor volume and body weight of the mice were observed and measured regularly.

[2] = system: MDA-MB-468 (Trop-2 positive cell lines); test: In-vitro cell activity test (CCK8), MDA-MB-468; format: cell-based; details: Homo sapiens, 96 h; MDA-MB-468, 7500 cells/well, 4 days; read-out: EC50 (nM), killing effects of bioactive molecules on cells
Procedure: (§1) First, tumor cells MDA-MB-468 (Trop-2 positive cell lines) and HCC1806 (Trop-2 positive cell lines) were cultured. The bioactive molecules and ADC molecules disclosed in the disclosure were co-cultured with the tumor cells, then a CCK8 reagent (Dojindo Molecular Technologies, Inc., Cat: CK04, Lot:JJ744) was added. The activity of dehydrogenase in mitochondria was tested through readings (detection wave length was 450 nm) from a microplate reader (manufacturer: Molecular Devices, model: SpectraMax M2) so as to evaluate the inhibitory effect of ADC on cell proliferation.
(§2) In-vitro cell activity testing: bioactive molecules or ADCs were diluted (12 concentration gradients) with corresponding test media (containing 2% FBS). The tumor cells were trypsinized with trypsin by a conventional method, collected and counted, and then resuspended with corresponding test media (containing 2% FBS). Diluted bioactive molecules or ADCs were added to a 96-well plate, and then cells were added. 20 μL of the CCK8 reagent was added to each well and reacted for 4 h, and readings (detection wavelength was 450 nm) were taken from a microplate reader.

[3] = system: HCC1806 (Trop-2 positive cell lines); test: In-vitro cell activity test (CCK8), HCC1806; format: cell-based; details: Homo sapiens, read-out: EC50 (nM), killing effects of bioactive molecules on cells
Procedure: as §1, §2

[4] = Experimental example 6: pharmacokinetics of BT001021 and T-030 in NCI-N87 tumor-bearing mice (T-030 in tumor and serum, LC-MS/MS); format: in vivo, Balb/c-nu mice; details: T-030 0.23 mg/kg, single dose; for Cmax / AUC(0-t) / MRT inf / half-life: iv, 0.23 mg/kg; for AUC(0-t): read-out: AUClast (h*ng/ml) of T-030; for MRT inf: read-out: MRTINF (h) of T-030; for half-life: read-out: T1/2 (h) of T-030 (converted)
Description: Experimental example 6 was used to evaluate pharmacokinetics of antibody drug conjugates and bioactive molecules in vivo. Specifically, in the experiment, a tumor-bearing mice model was constructed by subcutaneous xenograft of a human gastric cancer cell line NCI-N87 to Balb/c-nu mice. After the tumor volume was 100-200 mm^3, the mice were randomly grouped, and intravenously administrated with a single dose of BT001021 and T-030. The concentration of the T-030 in tumor tissues and serum was determined to evaluate the pharmacokinetics in vivo of the antibody conjugate BT001021 and the bioactive molecule T-030 in the tumor-bearing mice.
Tumor-bearing mice (4 mice/group) with tumor volume of 100-200 mm^3 were randomly grouped (the number of groups was determined according to sample number), and the administration route was single tail intravenous injection.
NCI-N87 cells were cultured in a 1640 culture medium containing 10% heat-inactivated fetal bovine serum at 37° C. and 5% CO2. NCI—N87 cells in the exponential growth stage were collected, resuspended in PBS to a suitable concentration, and inoculated subcutaneously into Balb/c-nu mice to construct xenograft models of […]. When the mean tumor volume was about 100-200 mm^3, the mice were randomly grouped into a physiological saline group, a T-030 (0.23 mg/kg, IV, single dose) group and a BT001021 (10 mg/kg, IV, single dose) group according to the tumor size, followed by tail intravenous injection of corresponding drugs. For the T-030 group, serum and tumor tissues were collected 1 h, 2 h, 4 h, 8 h, 24 h and 72 h after administration (T-030 was not detected in the serum and tumor tissues 72 h after administration, therefore, serum and tumor tissues were not collected 168 h after administration). For BT001021 group, serum and tumor tissues were collected 1 h, 2 h, 4 h, 8 h, 24 h, 72 h and 168 h after administration to test the concentration of the T-030 in the serum and the tumors by LC-MS/MS. The administration dose of the T-030 (0.23 mg/kg) was converted to isomolar dose (10 mg/kg) of BT001021.

[5] = Balb/c-nu, mouse, in vivo, Serum
[6] = Balb/c-nu, mouse, in vivo, Tumor

With `CCc1c2c(nc3ccc(O)cc13)-c1cc3c(c(=O)n1C2)COC(=O)[C@]3(O)CC` [SN-38] the “Tumor Volume (mm^3) (x ± S)” value [1] was 416.11 ± 195.15 mm^3 and the “Tumor growth inhibition rate (%)” value [1] was −2.75%.
For `CC[C@H](C)[C@@H]([C@@H](CC(=O)N1CCC[C@H]1[C@H](OC)[C@@H](C)C(=O)NC(Cc1ccccc1)C(=O)NCc1ccc(N)cc1)OC)N(C)C(=O)[C@@H](NC(=O)[C@H](C(C)C)N(C)C)C(C)C` (stereo partly drawn) [T001, (2S)—N-((3R,4S,5S)-1-((2S)-2-((1R,2R)-3-((1-((4-aminobenzyl)amino)-1-oxo-3-phenylpropan-2-yl)amino)-1-methoxy-2-methyl-3-propionyl)pyrrolidin-1-yl)-3-methoxy-5-methyl-1-heptanoyl-4-yl)-2-((S)-2-(dimethylamino)-3-methylbutyrylamino)-N,3-dimethylbutyramide] (NMe2Val-V[Dil][Dolaproine][ξF]-{NH(4-aminobenzyl)}), the EC50 [2] was 1.13 nM.
For `CC[C@H](C)[C@@H]([C@@H](CC(=O)N1CCC[C@H]1[C@H](OC)[C@@H](C)C(=O)N[C@@H](Cc1ccccc1)C(=O)NCc1ccc(N)cc1)OC)N(C)C(=O)[C@@H](NC(=O)[C@H](C(C)C)N(C)C)C(C)C` [T011] (NMe2Val-V[Dil][Dolaproine]F-{NH(4-aminobenzyl)}), the EC50 [2] was 0.211 nM.
Work on `CC[C@H](C)[C@@H]([C@@H](CC(=O)N1CCC[C@H]1[C@H](OC)[C@@H](C)C(=O)N[C@H](Cc1ccccc1)C(=O)NCc1ccc(N)cc1)OC)N(C)C(=O)[C@@H](NC(=O)[C@H](C(C)C)N(C)C)C(C)C` [T012] (NMe2Val-V[Dil][Dolaproine][dF]-{NH(4-aminobenzyl)}) yielded an EC50 [2] of 1.62 nM.
In the case of `CC[C@H](C)[C@@H]([C@@H](CC(=O)N1CCC[C@H]1[C@H](OC)[C@@H](C)C(=O)N[C@H](CC(=O)NCc1ccc(N)cc1)Cc1ccccc1)OC)N(C)C(=O)[C@@H](NC(=O)[C@H](C(C)C)N(C)C)C(C)C` [T013] (NMe2Val-V[Dil][Dolaproine][β3hF]-{NH(4-aminobenzyl)}), the EC50 [2] is reported as 0.414 nM.
For `CC[C@H](C)[C@@H]([C@@H](CC(=O)N1CCC[C@H]1[C@H](OC)[C@@H](C)C(=O)NCC(=O)NCc1ccc(N)cc1)OC)N(C)C(=O)[C@@H](NC(=O)[C@H](C(C)C)N(C)C)C(C)C` [T015] (NMe2Val-V[Dil][Dolaproine]G-{NH(4-aminobenzyl)}), the EC50 [2] was 7.43 nM.
Compound `CC[C@@]1(O)C(=O)OCc2c1cc1n(c2=O)Cc2c-1nc1ccccc1c2CCN(C(C)=O)C(C)C` [T-028, (S)—N-(2-(4-ethyl-4-hydroxyl-3,14-dione-3,4,12,14-tetrahydro-1H-pyrano [3′,4′,6,7]indolizino[1,2-b]quinolin-11-yl)ethyl)-N-isopropylacetamide] has an EC50 ([3]; HCC1806, 72 h) of 6.02 nM.
In the case of `CC[C@@]1(O)C(=O)OCc2c1cc1n(c2=O)Cc2c-1nc1ccccc1c2CCN(C(C)C)S(C)(=O)=O` [T-030, (S)—N-(2-(4-ethyl-4-hydroxyl-3,14-dione-3,4,12,14-tetrahydro-1H-pyrano[3′,4′,6,7]indolizino[1,2-b]quinolin-11-yl)ethyl)-N-isopropylmethanesulfonamide], the “Tumor Volume (mm^3) (x ± S)” value [1] is reported as 339.02 ± 152.80 mm^3, the “Tumor growth inhibition rate (%)” value [1] is reported as 21.48% and the “T-030 in the serum and tumor tissues” value ([4]; 72 h after administration, IV) is reported as “not detected”. It also gave a Cmax [4, 5] of 1.81 ng/mL, an AUC(0-t) [4, 5] of 5.58 ng·h/mL and an MRT inf [4, 5] of 1.11 h. The half-life [4, 5] was 1.76 h, the Cmax [4, 6] was 1.2 ng/mL and the AUC(0-t) [4, 6] was 3.85 ng·h/mL. The MRT inf [4, 6] was 1.52 h, the half-life [4, 6] was 2.55 h and the Tmax ([4]; Balb/c-nu, mouse, in vivo, Tumor, IV) was 1 h. For the same compound, the EC50 ([3]; 72 h, HCC1806, 7500 cells/well, 3 days) was 6.73 nM.

Reference: patent US20240382612A1, “BIOACTIVE CONJUGATE, PREPARATION METHOD THEREFOR AND USE THEREOF” (priority 2017, published 2024)
